Measurements from patent publication US20260315398A1, “POLYPEPTIDE DRUG-CONTAINING SUSTAINED-RELEASE MICROSPHERE, PHARMACEUTICAL FORMULATION THEREOF, PREPARATION METHOD THEREFOR, AND USE THEREOF” (HUILLY PHARMA CO., LTD, priority 2023, published 2026).

What was measured:
[1] = high-concentration conditions; cited from earlier work
[2] = Effect Simulation of Aggregation Inhibitor, AFM observation of fibrils (FIG. 6); format: physicochemical; details: aggregation inhibitors sucrose (1) and phenol (2); inhibitor:drug:water 1:3:100, lyophilized, PBS pH 7.4, AFM
Procedure: In this embodiment, simulation experiments of anti-aggregation effects are carried out using liraglutide (Lira) and semaglutide (Sema) as examples, respectively, with specific methods as follows.
A mixture of aggregation inhibitors (aggregation inhibitor 1 is sucrose, and aggregation inhibitor 2 is phenol), a drug substance, and deionized water are mixed at a weight ratio of 1:3:100 and subsequently lyophilized. PBS (pH 7.4) is added dropwise to the lyophilized drug powder to simulate gradual infiltration of the drug inside THE microsphere. Afterwards, a portion of the drug is dissolved in the PBS, and an atomic force microscope (AFM) is used to observe whether fibrils are formed by the drug and to simulate structural changes of the drug during the slow permeation process inside the microsphere.

inhibition of fibrillation by aggregation inhibitor [2]: significantly inhibit fibrillation
SMILES: CCCCCCCCCCCCCCCC(=O)N[C@@H](CCC(=O)NCCCC[C@H](NC(=O)[C@H](C)NC(=O)[C@H](C)NC(=O)[C@H](CCC(N)=O)NC(=O)CNC(=O)[C@H](CCC(=O)O)NC(=O)[C@H](CC(C)C)NC(=O)[C@H](Cc1ccc(O)cc1)NC(=O)[C@H](CO)NC(=O)[C@H](CO)NC(=O)[C@@H](NC(=O)[C@H](CC(=O)O)NC(=O)[C@H](CO)NC(=O)[C@@H](NC(=O)[C@H](Cc1ccccc1)NC(=O)[C@@H](NC(=O)CNC(=O)[C@H](CCC(=O)O)NC(=O)[C@H](C)NC(=O)[C@@H](N)Cc1cnc[nH]1)[C@@H](C)O)[C@@H](C)O)C(C)C)C(=O)N[C@@H](CCC(=O)O)C(=O)N[C@@H](Cc1ccccc1)C(=O)N[C@H](C(=O)N[C@@H](C)C(=O)N[C@@H](Cc1c[nH]c2ccccc12)C(=O)N[C@@H](CC(C)C)C(=O)N[C@H](C(=O)N[C@@H](CCCNC(=N)N)C(=O)NCC(=O)N[C@@H](CCCNC(=N)N)C(=O)NCC(=O)O)C(C)C)[C@@H](C)CC)C(=O)O [liraglutide]
aggregation and drug polymer fiber formation [1]: prone to aggregation and even form drug polymer fibers
